# Reference: article PMC12405480, “Endogenous ligands of bovine FFAR2/GPR43 display distinct pharmacological properties” (Frontiers in Cell and Developmental Biology, 2025)
# Legend:
# [1] = biological target: T1, bFFAR2 (bovine FFAR2/GPR43) (Bos taurus, UniProt A0ACM8QIU6); assay: SRE luciferase reporter gene assay, HEK293A expressing bFFAR2; assay type: cell-based
# T1 construct: full-length synthetic cDNA, N-terminal FLAG tag; transiently expressed in HEK293A cells
# T1 sequence (A0ACM8QIU6 1-329): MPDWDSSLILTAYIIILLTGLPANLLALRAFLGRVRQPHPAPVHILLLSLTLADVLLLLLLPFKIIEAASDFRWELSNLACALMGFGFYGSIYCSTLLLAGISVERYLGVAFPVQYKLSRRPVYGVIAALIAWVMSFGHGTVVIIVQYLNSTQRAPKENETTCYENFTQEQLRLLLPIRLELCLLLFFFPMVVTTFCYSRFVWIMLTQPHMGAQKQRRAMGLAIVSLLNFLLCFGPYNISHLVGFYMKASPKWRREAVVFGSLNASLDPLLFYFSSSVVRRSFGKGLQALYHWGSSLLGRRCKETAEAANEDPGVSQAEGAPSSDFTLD
# From the text: SRE luciferase reporter gene assay, HEK293A expressing bFFAR2 on bFFAR2 (bovine FFAR2/GPR43)
# [2] = biological target: T1, bFFAR2 (bovine FFAR2/GPR43); assay: BRET, mini-Gαi recruitment to bFFAR2-Rluc8, HEK293A; assay type: cell-based
# From the text: BRET, mini-Gαi recruitment to bFFAR2-Rluc8, HEK293A on bFFAR2 (bovine FFAR2/GPR43)
Compound,EC50 [2] [µM],further results
"CC(C)C(=O)O [2MP, 2-methyl-propanoic acid]",,EC50 [1]: 234 µM
"CC(C)CC(=O)O [3MB, 3-methyl-butanoic acid]",75.9,
CC(=O)O [C2:0],9770,
CCC(=O)O [C3:0],977,
CCCC(=O)O [C4:0],129,
CCCCC(=O)O [C5:0],61.7,
CCCCCC(=O)O [C6:0],72.4,
CCCCCCC(=O)O [C7:0],126,
CCCCCCCC(=O)O [C8:0],,"mGαi recruitment ([2]; partial agonist, AUC over 10 min, -log10 of EC50, unreliable (EC50 above the 1 mM dose of Figure 1)): 2.57 ± 0.40"
